Assay results: US20100015058A1, “RADIOLABELED BBN-RGD HETERODIMERS FOR CANCER TARGETING” (STANFORD UNIVERSITY, priority 2008, published 2010)

Experiments:
T47D tumor cells = experiment: Cell uptake assay on T47D tumor cells; type: cell-based, human; conditions: 120 min, 37° C., n=3
Protocol: The cells suspensions were collected and measured in a y counter (Packard, Meriden, Conn.). The cell uptake was expressed as the percent added dose (% AD) after decay correction. Experiments were performed twice with triplicate wells.

[1] = MicroPET blood and normal organ uptake in T47D and MDA-MB-435 tumor-bearing nude mice; conditions: average of eight mice; for tissue uptake at 1 h / tissue uptake at 2 h / tissue uptake at 4 h / tissue uptake at 24 h / tissue uptake at 0.5 h: nude, mouse, iv, total radioactivity
From the text: The T47D or MDA-MB435 tumor uptake is expressed as the average of each tracer in four mice, while the normal organ uptake is expressed as the average of each tracer in eight mice (four T47D tumor-bearing mice and four MDA-MB-435 tumor-bearing mice per tracer).

[2] = Small-animal PET of MDA-MB-435 tumor-bearing mice; conditions: female, athymic nude, mouse, in vivo, iv, total radioactivity
Protocol: The MDA-MB435 tumor model was established by orthotopic injections of 5×10^6 cells into the right mammary fat pad of female athymic nude mice. […] The mice were subjected to microPET studies when the tumor volume reached 100-300 mm^3 (2-3 weeks for MDA-MB-435, and 4-5 wk for T47D).
For static PET, 5-min scans were acquired at 30 min, 1 h, and 2 h after injection. For dynamic PET, 30-min scans (1×30 s, 4×1 min, 1×1.5 min, 4×2 min, 5×3 min; total 15 frames) were started 1 min after injection, and two 5-min static PET images were also acquired at 1 h and 2 h after injection. The images were reconstructed using a two-dimensional ordered subsets expectation maximum (OSEM) algorithm and no correction was applied for attenuation or scatter. […] For each small-animal PET scan, regions of interest (ROIs) were drawn over the tumor, normal tissue, and major organs using vendor software ASI Pro 5.2.4.0 on decay-corrected whole-body coronal images. The maximum radioactivity concentrations (accumulation) within a tumor or an organ were obtained from mean pixel values within the multiple ROI volume, and were converted to megabecquerels per milliliter per minute using a conversion factor. These values were then divided by the administered activity to obtain (assuming a tissue density of 1 g/ml) an image ROI-derived percent injected dose per gram (% ID/g).
(§1) Quantification of tumor and major organ activity accumulation in the microPET scans was realized by measuring the regions of interest (ROIs) that encompassing the entire organ on the coronal images.

[3] = MicroPET of T47D tumor-bearing mice; type: in vivo; conditions: female, nude, mouse, T47D tumor, iv, total radioactivity, orthotopic model
From the text: The MDA-MB-231, MDA-MB468, BT474, BT-20, T47D, MCF-7 and MDA-MB435 human breast cancer cell lines were all obtained from the American Type Culture Collection (ATCC) and maintained under standard conditions according to ATCC. The MDA-MB435 tumor model was established by orthotopic injections of 5×10^6 cells into the right mammary fat pad of female athymic nude mice. For T47D tumor model establishment, the female nude mice were first subcutaneously implanted with 60-day release 17β-estradiol pellets (Innovative Research of America, Sarasota, Fla.) in the left neck. One day after the estradiol implantation, 1×10^7 T47D cells were orthotopically injected into the right mammary fat pad of the nude mice. The mice were subjected to microPET studies when the tumor volume reached 100-300 mm^3 (2-3 weeks for MDA-MB-435, and 4-5 wk for T47D).
as §1

in vivo = conditions: mouse, in vivo, iv, total radioactivity
[4] = male, athymic nude, 5.5 MBq, Tumor uptake
[5] = male, athymic nude, 3.7 MBq, PC-3 tumor uptake
[6] = male, athymic nude, 3.7 MBq, PC-3 tumor uptake, dynamic scan
[7] = male, athymic nude, 3.7 MBq, PC-3 tumor uptake, static scan after dynamic scan

CSCC[C@H](NC(=O)[C@H](CC(C)C)NC(=O)[C@H](Cc1c[nH]cn1)NC(=O)CNC(=O)[C@@H](NC(=O)[C@H](C)NC(=O)[C@H](Cc1c[nH]c2ccccc12)NC(=O)[C@H](CCC(N)=O)NC(=O)CCCCCNC(=O)CC[C@H](NC(=S)Nc1ccc(C[C@H]2CN(CC(=O)O)CCN(CC(=O)O)CCN2CC(=O)O)cc1)C(=O)NCCCC[C@@H]1NC(=O)[C@@H](Cc2ccc(O)cc2)NC(=O)[C@H](CC(=O)O)NC(=O)CNC(=O)[C@H](CCCNC(=N)N)NC1=O)C(C)C)C(N)=O [^64Cu-NOTA-RGD-BBN, metal not drawn]
T47D cell uptake value (T47D tumor cells): 5.30±0.53 % AD
Blood uptake ([1]; 0.5 h): 1.40 ± 0.34 % ID/g
Kidney uptake ([1]; 0.5 h): 5.29 ± 0.58 % ID/g
Liver uptake ([1]; 0.5 h): 4.82 ± 1.34 % ID/g
Muscle uptake ([1]; 0.5 h): 0.91 ± 0.27 % ID/g
Kidney uptake ([1]; 1 h): 4.32 ± 0.55 % ID/g
Liver uptake ([1]; 1 h): 4.05 ± 1.12 % ID/g
Muscle uptake ([1]; 1 h): 0.75 ± 0.12 % ID/g
Kidney uptake ([1]; 2 h): 3.28±0.99 % ID/g
Liver uptake ([1]; 2 h): 3.22 ± 0.97 % ID/g
Muscle uptake ([1]; 2 h): 0.56 ± 0.33 % ID/g
tissue uptake at 1 h ([1]; blood, Blood uptake, 1 h): 1.01 ± 0.21 %ID/g
tissue uptake at 2 h ([1]; blood, Blood uptake, 2 h): 0.89 ± 0.23 %ID/g
tissue uptake at 4 h ([1]; blood, Blood uptake): 0.54 ± 0.2 %ID/g
tissue uptake at 24 h ([1]; blood, Blood uptake): 0.36 ± 0.04 %ID/g
tissue uptake at 4 h ([1]; kidney, Kidney uptake): 2.95 ± 0.26 %ID/g
tissue uptake at 24 h ([1]; kidney, Kidney uptake): 2.1 ± 0.72 %ID/g
tissue uptake at 4 h ([1]; liver, Liver uptake): 2.76 ± 0.81 %ID/g
tissue uptake at 24 h ([1]; liver, Liver uptake): 2.24 ± 0.36 %ID/g
tissue uptake at 4 h ([1]; muscle, Muscle uptake): 0.4 ± 0.07 %ID/g
tissue uptake at 24 h ([1]; muscle, Muscle uptake): 0.21 ± 0.04 %ID/g
tissue uptake at 4 h ([2]; MDA-MB-435 tumor uptake): 1.79 ± 0.2 %ID/g
tissue uptake at 24 h ([2]; MDA-MB-435 tumor uptake): 1.29 ± 0.09 %ID/g
tissue uptake at 4 h ([3]; 4 h): 1.94 ± 0.22 %ID/g
tissue uptake at 24 h ([3]; 24 h): 1.38 ± 0.16 %ID/g
tissue uptake at 0.5 h (in vivo; male, athymic nude, 5.5 MBq, Blood uptake): < 1 %ID/g
tissue uptake at 1 h (in vivo; male, athymic nude, 5.5 MBq, PC-3 tumor uptake with BBN blocking): 0.76 ± 0.36 %ID/g
tissue uptake at 1 h (in vivo; male, athymic nude, 5.5 MBq, PC-3 tumor uptake with RGD and BBN blocking): 0.54 ± 0.41 %ID/g
tissue uptake at 1 h (in vivo; male, athymic nude, 5.5 MBq, PC-3 tumor uptake with RGD blocking): 1.64 ± 0.77 %ID/g
tissue uptake at 0.5 h (in vivo; [4]): 3.06 ± 0.11 %ID/g
tissue uptake at 1 h (in vivo; [4]): 2.78 ± 0.56 %ID/g
tissue uptake at 4 h (in vivo; [4]): 2.21 ± 0.49 %ID/g
tissue uptake at 20 h (in vivo; [4]): 2.04 ± 0.35 %ID/g
tissue uptake at 24 h (in vivo; [4]): 2.04 ± 0.35 %ID/g
tissue uptake (in vivo; male, athymic nude, 5.5 MBq, liver uptake): 3.5 %ID/g
tissue uptake at 1 h (in vivo; 5.5 MBq, Blood uptake): 0.66 ± 0.15 %ID/g
tissue uptake at 4 h (in vivo; 5.5 MBq, Blood uptake): 0.49 ± 0.07 %ID/g
tissue uptake at 20 h (in vivo; 5.5 MBq, Blood uptake): 0.5 ± 0.15 %ID/g
tissue uptake at 0.5 h (in vivo; 5.5 MBq, Kidney uptake): 4.09 ± 0.81 %ID/g
tissue uptake at 1 h (in vivo; 5.5 MBq, Kidney uptake): 3.06 ± 0.25 %ID/g
tissue uptake at 4 h (in vivo; 5.5 MBq, Kidney uptake): 2.3 ± 0.41 %ID/g
tissue uptake at 20 h (in vivo; 5.5 MBq, Kidney uptake): 1.87 ± 0.41 %ID/g
tissue uptake at 0.5 h (in vivo; 5.5 MBq, Liver uptake): 3.46 ± 0.26 %ID/g
tissue uptake at 1 h (in vivo; 5.5 MBq, Liver uptake): 2.8 ± 1.15 %ID/g
tissue uptake at 4 h (in vivo; 5.5 MBq, Liver uptake): 1.83 ± 0.68 %ID/g
tissue uptake at 20 h (in vivo; 5.5 MBq, Liver uptake): 0.98 ± 0.4 %ID/g

CSCC[C@H](NC(=O)[C@H](CC(C)C)NC(=O)[C@H](Cc1c[nH]cn1)NC(=O)CNC(=O)[C@@H](NC(=O)[C@H](C)NC(=O)[C@H](Cc1c[nH]c2ccccc12)NC(=O)[C@H](CCC(N)=O)NC(=O)CCCCCNC(=O)CC[C@H](NC(=S)Nc1ccc(C[C@H]2CN(CC(=O)O)CCN(CC(=O)O)CCN2CC(=O)O)cc1)C(=O)NCCCC[C@@H]1NC(=O)[C@@H](Cc2ccc(O)cc2)NC(=O)[C@H](CC(=O)O)NC(=O)CNC(=O)[C@H](CCCNC(=N)N)NC1=O)C(C)C)C(N)=O [^68Ga-NOTA-RGD-BBN, metal not drawn]
T47D cell uptake value (T47D tumor cells): 2.42±0.23 % AD
Blood uptake ([1]; 0.5 h): 2.91 ± 0.28 % ID/g
Blood uptake ([1]; 1 h): 1.95 ± 0.47 % ID/g
Blood uptake ([1]; 2 h): 1.06 ± 0.23 % ID/g
Kidney uptake ([1]; 2 h): 1.64±0.40 % ID/g
Liver uptake ([1]; 2 h): 1.60 ± 0.09 % ID/g
tissue uptake at 2 h ([1]; female, kidney, Kidney uptake, 2 h): 1.64 ± 0.4 %ID/g
tissue uptake at 0.5 h ([1]; female, liver, Liver uptake, 0.5 h): 2.68 ± 0.29 %ID/g
tissue uptake at 0.5 h ([1]; kidney, Kidney uptake, 0.5 h): 4.39 ± 1.05 %ID/g
tissue uptake at 1 h ([1]; kidney, Kidney uptake, 1 h): 3.96 ± 1.12 %ID/g
tissue uptake at 1 h ([1]; liver, Liver uptake, 1 h): 2.08 ± 0.43 %ID/g
tissue uptake at 0.5 h ([1]; muscle, Muscle uptake, 0.5 h): 1.33 ± 0.28 %ID/g
tissue uptake at 1 h ([1]; muscle, Muscle uptake, 1 h): 1.18 ± 0.44 %ID/g
tissue uptake at 2 h ([1]; muscle, Muscle uptake, 2 h): 0.78 ± 0.07 %ID/g
tissue uptake at 1 h ([2]; 3.7 MBq, MDA-MB435 tumor uptake): 3.23 ± 0.86 %ID/g
tissue uptake at 1 h ([2]; MDA-MB-435 tumor uptake): 2.24 ± 0.73 %ID/g
tissue uptake at 2 h ([2]; MDA-MB-435 tumor uptake): 1.84 ± 0.72 %ID/g
tissue uptake at 0.5 h ([3]; 0.5 h): 3.91 ± 1.13 %ID/g
tissue uptake at 1 h ([3]; 1 h): 2.78 ± 0.87 %ID/g
tissue uptake at 2 h ([3]; 2 h): 2.42 ± 0.29 %ID/g
tissue uptake at 1 h (in vivo; male, athymic nude, 10 mg/kg, PC-3 tumor uptake with RGD blocking, 1 h, 3.7 MBq, co-injected c(RGDyK) 10 mg/kg): 2.08 ± 0.65 %ID/g
tissue uptake at 0.5 h (in vivo; [5]): 6.55 ± 0.83 %ID/g
tissue uptake at 1 h (in vivo; [5]): 5.26 ± 0.32 %ID/g
tissue uptake at 2 h (in vivo; [5]): 4.04 ± 0.28 %ID/g
tissue uptake at 5 min (in vivo; [6]): 5.56 %ID/g
tissue uptake at 0.25 h (in vivo; [6]): 6.68 %ID/g
tissue uptake at 0.5 h (in vivo; [6]): 6.7 %ID/g
tissue uptake at 1 h (in vivo; [7]): 4.47 %ID/g
tissue uptake at 2 h (in vivo; [7]): 3.75 %ID/g
tissue uptake at 0.5 h (in vivo; male, athymic nude, 3.7 MBq, liver uptake (highest)): ~2 %ID/g
tissue uptake at 1 h (in vivo; male, athymic nude, PC-3 tumor uptake with BBN blocking, 1 h, 3.7 MBq, co-injected Aca-BBN(7-14) 15 mg/kg): 1.61 ± 0.57 %ID/g
tissue uptake at 1 h (in vivo; male, athymic nude, PC-3 tumor uptake with RGD+BBN blocking, 1 h, 3.7 MBq, co-injected RGD 10 mg/kg and BBN 15 mg/kg): 0.42 ± 0.1 %ID/g
